Test results reported in paper PMC5925572, “Protoplast-Esculin Assay as a New Method to Assay Plant Sucrose Transporters: Characterization of AtSUC6 and AtSUC7 Sucrose Uptake Activity in Arabidopsis Col-0 Ecotype” (Frontiers in Plant Science, 2018).

Legend:
AtSUC8 = biological target: T1, AtSUC8 (Arabidopsis thaliana, UniProt Q9ZVK6); assay: esculin fluorescence uptake into GFP-fusion expressing mesophyll protoplasts; format: cell-based; settings: 1 mM esculin, W5 buffer pH 5.6
T1 construct: gene SUC8; full-length CDS, GFP fusion, in Arabidopsis mesophyll protoplasts
T1 sequence (Q9ZVK6 1-492): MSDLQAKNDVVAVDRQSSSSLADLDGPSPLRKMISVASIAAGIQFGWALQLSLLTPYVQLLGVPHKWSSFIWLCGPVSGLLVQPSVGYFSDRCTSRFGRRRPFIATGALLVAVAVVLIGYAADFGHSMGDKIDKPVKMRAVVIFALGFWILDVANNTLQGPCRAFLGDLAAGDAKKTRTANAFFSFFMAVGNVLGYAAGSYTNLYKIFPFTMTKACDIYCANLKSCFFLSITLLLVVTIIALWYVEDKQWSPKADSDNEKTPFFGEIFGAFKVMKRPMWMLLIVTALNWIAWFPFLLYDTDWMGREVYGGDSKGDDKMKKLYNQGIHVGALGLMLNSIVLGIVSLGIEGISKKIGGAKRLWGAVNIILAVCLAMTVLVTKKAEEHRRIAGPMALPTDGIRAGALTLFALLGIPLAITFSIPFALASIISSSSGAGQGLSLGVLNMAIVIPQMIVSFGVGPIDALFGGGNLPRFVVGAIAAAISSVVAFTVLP

AtSUC9 = biological target: T2, AtSUC9 (Arabidopsis thaliana, UniProt Q9FG00); assay: as above; format: cell-based; settings: 1 mM esculin, W5 buffer pH 5.6
T2 construct: gene SUC9; full-length CDS, GFP-AtSUC9 fusion, in Arabidopsis mesophyll protoplasts
T2 sequence (Q9FG00 1-491): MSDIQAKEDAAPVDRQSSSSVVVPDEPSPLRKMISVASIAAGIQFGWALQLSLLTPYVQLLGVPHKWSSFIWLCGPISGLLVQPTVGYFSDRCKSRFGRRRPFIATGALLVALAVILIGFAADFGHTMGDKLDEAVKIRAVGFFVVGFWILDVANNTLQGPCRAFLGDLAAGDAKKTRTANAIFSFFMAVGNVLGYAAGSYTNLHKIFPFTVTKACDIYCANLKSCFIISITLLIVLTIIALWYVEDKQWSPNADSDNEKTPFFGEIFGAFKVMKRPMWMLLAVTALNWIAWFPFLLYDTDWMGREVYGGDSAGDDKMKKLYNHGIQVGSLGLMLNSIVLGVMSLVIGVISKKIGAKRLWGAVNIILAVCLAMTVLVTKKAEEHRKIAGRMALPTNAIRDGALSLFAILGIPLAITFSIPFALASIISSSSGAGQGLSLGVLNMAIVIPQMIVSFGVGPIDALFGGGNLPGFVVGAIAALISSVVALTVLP

AtSUC6Col-0 [1] = biological target: T3, AtSUC6Col-0 (Arabidopsis thaliana, UniProt Q6A329); assay: competition of […]-sucrose uptake in yeast; esculin uptake into protoplasts; format: cell-based; settings: pH 5.5; competition with 100 μM 14C-sucrose; value in figure only
T3 construct: gene SUC6; full-length CDS from silique cDNA; untagged in yeast CSY4000 (strain TRY1039); GFP fusion in protoplasts
T3 sequence (Q6A329 1-492): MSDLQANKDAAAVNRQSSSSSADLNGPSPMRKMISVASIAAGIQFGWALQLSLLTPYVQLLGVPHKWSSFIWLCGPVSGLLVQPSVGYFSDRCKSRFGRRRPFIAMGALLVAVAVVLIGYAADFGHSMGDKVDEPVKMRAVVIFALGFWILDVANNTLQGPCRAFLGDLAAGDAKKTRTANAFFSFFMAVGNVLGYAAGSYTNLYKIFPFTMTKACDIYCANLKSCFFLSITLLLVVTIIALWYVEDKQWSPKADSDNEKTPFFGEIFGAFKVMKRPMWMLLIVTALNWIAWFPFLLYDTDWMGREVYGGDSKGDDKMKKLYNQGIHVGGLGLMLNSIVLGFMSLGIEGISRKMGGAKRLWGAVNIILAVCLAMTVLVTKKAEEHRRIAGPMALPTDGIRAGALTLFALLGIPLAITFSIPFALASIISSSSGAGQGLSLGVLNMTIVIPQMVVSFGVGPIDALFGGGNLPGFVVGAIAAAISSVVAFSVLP

AtSUC1 = biological target: T4, AtSUC1 (Arabidopsis thaliana, UniProt Q39232); assay: esculin fluorescence uptake into GFP-fusion expressing mesophyll protoplasts; format: cell-based; settings: 1 mM esculin, W5 buffer pH 5.6
T4 construct: gene SUC1; full-length CDS, GFP fusion, in Arabidopsis mesophyll protoplasts
T4 sequence (Q39232 1-513): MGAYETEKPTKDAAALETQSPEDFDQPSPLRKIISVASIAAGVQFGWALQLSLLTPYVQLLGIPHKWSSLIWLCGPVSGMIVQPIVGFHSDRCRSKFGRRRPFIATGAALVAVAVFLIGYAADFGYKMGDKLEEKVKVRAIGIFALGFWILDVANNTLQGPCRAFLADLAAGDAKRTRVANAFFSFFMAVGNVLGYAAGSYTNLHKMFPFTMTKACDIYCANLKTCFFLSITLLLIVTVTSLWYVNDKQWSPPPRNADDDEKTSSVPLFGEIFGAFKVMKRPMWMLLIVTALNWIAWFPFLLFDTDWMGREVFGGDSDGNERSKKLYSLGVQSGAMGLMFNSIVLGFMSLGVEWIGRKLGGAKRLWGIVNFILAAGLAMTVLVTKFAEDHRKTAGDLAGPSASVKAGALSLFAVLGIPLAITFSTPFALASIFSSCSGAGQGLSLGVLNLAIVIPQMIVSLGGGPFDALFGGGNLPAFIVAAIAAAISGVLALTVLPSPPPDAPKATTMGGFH

AtSUC3 = biological target: T5, AtSUC3 (Arabidopsis thaliana, UniProt O80605); assay: as above; format: cell-based; settings: 1 mM esculin, W5 buffer pH 5.6
T5 construct: gene SUC3; full-length CDS, GFP-AtSUC3 fusion, in Arabidopsis mesophyll protoplasts
T5 sequence (O80605 1-594): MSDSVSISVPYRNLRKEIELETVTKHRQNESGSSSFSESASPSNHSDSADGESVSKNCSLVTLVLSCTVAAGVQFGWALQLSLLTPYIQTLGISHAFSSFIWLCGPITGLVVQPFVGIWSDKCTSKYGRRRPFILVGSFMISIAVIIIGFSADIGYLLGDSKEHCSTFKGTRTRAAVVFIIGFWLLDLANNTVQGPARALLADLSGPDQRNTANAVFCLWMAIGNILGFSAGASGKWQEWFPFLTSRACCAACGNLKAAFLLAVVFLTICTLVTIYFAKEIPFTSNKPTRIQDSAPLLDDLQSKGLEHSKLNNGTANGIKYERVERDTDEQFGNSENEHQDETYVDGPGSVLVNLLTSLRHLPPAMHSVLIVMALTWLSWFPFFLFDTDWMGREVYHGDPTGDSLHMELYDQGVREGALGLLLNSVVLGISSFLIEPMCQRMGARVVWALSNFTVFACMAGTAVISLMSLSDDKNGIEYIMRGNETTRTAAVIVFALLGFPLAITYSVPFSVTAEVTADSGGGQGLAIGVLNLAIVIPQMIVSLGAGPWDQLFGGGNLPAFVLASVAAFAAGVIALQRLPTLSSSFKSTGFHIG

AtSUC5 = biological target: T6, AtSUC5 (Arabidopsis thaliana, UniProt Q9C8X2); assay: as above; format: cell-based; settings: 1 mM esculin, W5 buffer pH 5.6
T6 construct: gene SUC5; full-length CDS, GFP fusion, in Arabidopsis mesophyll protoplasts; Col-0 named for the mutant construct
T6 sequence (Q9C8X2 1-512): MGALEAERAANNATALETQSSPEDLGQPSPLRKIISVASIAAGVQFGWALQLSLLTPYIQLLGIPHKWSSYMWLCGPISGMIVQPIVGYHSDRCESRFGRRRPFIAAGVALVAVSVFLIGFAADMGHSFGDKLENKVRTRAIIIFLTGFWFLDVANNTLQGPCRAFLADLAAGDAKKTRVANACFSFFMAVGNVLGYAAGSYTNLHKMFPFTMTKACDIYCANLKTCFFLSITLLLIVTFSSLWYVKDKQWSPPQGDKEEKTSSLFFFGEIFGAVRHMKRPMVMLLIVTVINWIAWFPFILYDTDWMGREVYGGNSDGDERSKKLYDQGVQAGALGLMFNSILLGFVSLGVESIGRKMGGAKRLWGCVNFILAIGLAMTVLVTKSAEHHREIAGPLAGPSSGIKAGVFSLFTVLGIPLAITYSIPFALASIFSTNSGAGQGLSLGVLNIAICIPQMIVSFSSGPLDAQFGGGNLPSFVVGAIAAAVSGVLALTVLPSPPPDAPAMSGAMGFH

AtSUC2 = biological target: T7, AtSUC2 (Arabidopsis thaliana, UniProt Q39231); assay: as above; format: cell-based; settings: 1 mM esculin, W5 buffer pH 5.6
T7 construct: gene SUC2; full-length CDS, C-terminal GFP fusion (AtSUC2-GFP), in Arabidopsis mesophyll protoplasts; Col-0 named for the mutant construct
T7 sequence (Q39231 1-512): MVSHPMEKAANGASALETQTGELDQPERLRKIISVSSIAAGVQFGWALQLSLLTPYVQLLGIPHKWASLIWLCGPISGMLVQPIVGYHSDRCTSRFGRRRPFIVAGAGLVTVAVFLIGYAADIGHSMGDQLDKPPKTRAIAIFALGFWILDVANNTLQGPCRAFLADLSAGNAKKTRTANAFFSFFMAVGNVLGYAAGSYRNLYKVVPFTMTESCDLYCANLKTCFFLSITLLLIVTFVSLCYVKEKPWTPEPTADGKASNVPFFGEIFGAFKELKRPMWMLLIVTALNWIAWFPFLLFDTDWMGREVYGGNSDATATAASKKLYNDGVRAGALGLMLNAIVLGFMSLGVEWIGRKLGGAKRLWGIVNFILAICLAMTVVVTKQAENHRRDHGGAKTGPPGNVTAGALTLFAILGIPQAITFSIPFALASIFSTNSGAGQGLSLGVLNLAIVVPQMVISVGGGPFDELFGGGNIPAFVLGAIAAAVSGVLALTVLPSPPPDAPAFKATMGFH

AtSUC6Col-0 [2] = biological target: T3, AtSUC6Col-0; assay: competition of […]-sucrose uptake in yeast; format: cell-based; settings: 100 μM 14C-sucrose, maltose in 10-fold excess (1 mM), pH 5.5
AtSUC6Col-0 [3] = biological target: T3, AtSUC6Col-0; assay: competition of […]-sucrose uptake in yeast; format: cell-based; settings: 10-fold excess, pH 5.5, weak, value in figure only
[4] = substrate: OC[C@H]1O[C@@](CO)(O[C@H]2O[C@H](CO)[C@@H](O)[C@H](O)[C@H]2O)[C@@H](O)[C@@H]1O; assay: cells, lysate or membranes; format: cell-based, Arabidopsis thaliana; settings: external pH 5.5, H+ symport, labelled compound

Question: How did the “esculin fluorescence uptake into GFP-fusion expressing mesophyll protoplasts” value (AtSUC8) turn out when O=c1ccc2cc(O[C@@H]3O[C@H](CO)[C@@H](O)[C@H](O)[C@H]3O)c(O)cc2o1 [esculin] was run?
Answer: AtSUC1, AtSUC5, AtSUC6Col-0, AtSUC8, or AtSUC9 enabled the cells to accumulate esculin

Question: And the “esculin fluorescence uptake into GFP-fusion expressing mesophyll protoplasts” value (AtSUC9)?
Answer: AtSUC1, AtSUC5, AtSUC6Col-0, AtSUC8, or AtSUC9 enabled the cells to accumulate esculin

Question: And the “competition of 14C-sucrose uptake in yeast; esculin uptake into protoplasts” value (AtSUC6Col-0 [1])?
Answer: addition of esculin greatly interfered with sucrose uptake (Figure 4E)

Question: And the “esculin fluorescence uptake into GFP-fusion expressing mesophyll protoplasts” value (AtSUC1)?
Answer: AtSUC1, AtSUC5, AtSUC6Col-0, AtSUC8, or AtSUC9 enabled the cells to accumulate esculin

Question: And the “esculin fluorescence uptake into GFP-fusion expressing mesophyll protoplasts” value (AtSUC3)?
Answer: Protoplasts with GFP-AtSUC3 were also able to accumulate esculin

Question: What about the “esculin fluorescence uptake into GFP-fusion expressing mesophyll protoplasts” value (AtSUC5) of the same molecule?
Answer: AtSUC1, AtSUC5, AtSUC6Col-0, AtSUC8, or AtSUC9 enabled the cells to accumulate esculin

Question: And the “esculin fluorescence uptake into GFP-fusion expressing mesophyll protoplasts” value (AtSUC2)?
Answer: all protoplasts labeled by AtSUC2-GFP had taken up esculin

Question: How did the “% residual 14C-sucrose uptake in 10-fold excess” value (AtSUC6Col-0 [2]) turn out when OC[C@H]1O[C@H](O[C@H]2[C@H](O)[C@@H](O)C(O)O[C@@H]2CO)[C@H](O)[C@@H](O)[C@@H]1O (stereo partly shown) [maltose] was run?
Answer: 32%

Question: How did the “competition of 14C-sucrose uptake in yeast” value (AtSUC6Col-0 [3]) turn out when OC[C@H]1O[C@H](OC[C@H]2O[C@H](O[C@]3(CO)O[C@H](CO)[C@@H](O)[C@@H]3O)[C@H](O)[C@@H](O)[C@@H]2O)[C@H](O)[C@@H](O)[C@H]1O [raffinose] was run?
Answer: The trisaccharide raffinose slightly interfered with sucrose uptake

B1: AtSUC6Col-0 (Arabidopsis thaliana) (protein)
chain: MSDLQANKDAAAVNRQSSSSSADLNGPSPMRKMISVASIAAGIQFGWALQLSLLTPYVQLLGVPHKWSSFIWLCGPVSGLLVQPSVGYFSDRCKSRFGRRRPFIAMGALLVAVAVVLIGYAADFGHSMGDKVDEPVKMRAVVIFALGFWILDVANNTLQGPCRAFLGDLAAGDAKKTRTANAFFSFFMAVGNVLGYAAGSYTNLYKIFPFTMTKACDIYCANLKSCFFLSITLLLVVTIIALWYVEDKQWSPKADSDNEKTPFFGEIFGAFKVMKRPMWMLLIVTALNWIAWFPFLLYDTDWMGREVYGGDSKGDDKMKKLYNQGIHVGGLGLMLNSIVLGFMSLGIEGISRKMGGAKRLWGAVNIILAVCLAMTVLVTKKAEEHRRIAGPMALPTDGIRAGALTLFALLGIPLAITFSIPFALASIISSSSGAGQGLSLGVLNMTIVIPQMVVSFGVGPIDALFGGGNLPGFVVGAIAAAISSVVAFSVLP
notes: full-length CDS from silique cDNA; untagged in yeast CSY4000 (strain TRY1039); GFP fusion in protoplasts
Question: How did the Km [4] turn out when B1 was run?
Answer: 81.2 ± 2.7 µM
